Experimental data published in patent US8362000B2, “Azetidinyl diamides as monoacylglycerol lipase inhibitors” (Janssen Pharmaceutica NV, priority 2009, dated 2013).
Substitutions are numbered along the chain they refer to. Where two headings read alike, the source gives them in different places.

Assays:
mutant MGL = target: T1, mutant MGL (Homo sapiens, UniProt Q99685, L169S/L176S); assay: MGL ThermoFluor assay - mutant; assay type: binding
T1 sequence (Q99685 1-303 L169S/L176S): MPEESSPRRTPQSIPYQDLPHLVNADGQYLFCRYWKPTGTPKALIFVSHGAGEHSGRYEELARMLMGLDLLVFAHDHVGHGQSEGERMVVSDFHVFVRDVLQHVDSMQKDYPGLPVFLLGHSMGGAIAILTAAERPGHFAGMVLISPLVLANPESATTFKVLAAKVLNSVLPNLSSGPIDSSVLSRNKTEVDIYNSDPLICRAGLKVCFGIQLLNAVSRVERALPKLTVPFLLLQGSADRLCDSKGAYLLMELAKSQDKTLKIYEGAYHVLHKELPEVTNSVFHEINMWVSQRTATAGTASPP

[1] = target: T2, purified wild type MGL (wt-MGLL 6H-11-313) (Homo sapiens, UniProt Q99685)
T2 sequence (Q99685 1-303): T1 sequence (Q99685 1-303 L169S/L176S) with S169L, S176L

[2] = ThermoFluor, compound concentration measured by qNMR, read-out: MGL mutant ThermoFluor qKd (using qNMR conc.)
[3] = ThermoFluor concentration-response, read-out: MGL mutant ThermoFluor Kd
[4] = ThermoFluor, compound concentration measured by qNMR, read-out: MGL mutant ThermoFluor qKd (μM) (using qNMR conc.)
[5] = compound concentration measured by qNMR, read-out: MGL mutant ThermoFluor qKd (using qNMR conc.)

Structure (SMILES) | Kd (mutant MGL; [2]) [µM] | IC50 [1] [nM] | Kd (mutant MGL; [3]) [µM] | Kd (mutant MGL; [4]) [µM] | Kd (mutant MGL; [5]) [µM]
O=C(c1ccc2c(ccn2-c2cncnc2)c1)N1CC(N2CCN(C(=O)c3nccs3)CC2)C1 [Cpd 1263, 1-Pyrimidin-5-yl-5-({3-[4-(1,3-thiazol-2-ylcarbonyl)piperazin-1-yl]azetidin-1-yl}carbonyl)-1H-indole] | 0.215 | 968 |  |  | 
Cc1c(C(=O)N2CCN(C3CN(C(=O)c4cncs4)C3)CC2)sc2cc(C(F)(F)F)ccc12 [Cpd 726] |  | 218 | 0.127 |  | 
O=C(c1cnc2ccc(Cl)cc2c1)N1CC(N2CCN(C(=O)c3nccs3)CC2)C1 [Cpd 797] | 0.489 | 1600 |  |  | 
O=C(c1ccccc1)N1CCN(C2CN(C(=O)c3ccc4c(ccn4-c4ccc(F)cn4)c3)C2)CC1 [Cpd 596, 1-(5-Fluoropyridin-2-yl)-5-({3-[4-(phenylcarbonyl)piperazin-1-yl]azetidin-1-yl}carbonyl)-1H-indole] | 0.628 | 543 |  |  | 
O=C(c1ccc2c(c1)[nH]c(=O)n2CCC(F)(F)F)N1CC(N2CCN(C(=O)c3nccs3)CC2)C1 [Cpd 938] |  | 698 | 0.091 |  | 
O=C(c1ccc2[nH]c(-c3ccccc3)nc2c1)N1CC(N2CCN(C(=O)c3cscn3)CC2)C1 [Cpd 1299] |  | 3860 | 1.1 |  | 
O=C(c1ccc2[nH]c(-c3ccccc3)nc2c1)N1CCN(C2CN(C(=O)c3nccs3)C2)CC1 [Cpd 1271] |  | 1570 | 1 |  | 
Cc1nc2cc(C(=O)N3CC(N4CCN(C(=O)c5ccccc5)CC4)C3)ccc2n1C1CCCCC1 [Cpd 37, 1-Cyclohexyl-2-methyl-5-({3-[4-(phenylcarbonyl)piperazin-1-yl]azetidin-1-yl}carbonyl)-1H-benzimidazole] |  | 5990 | 0.1 |  | 
COCCOc1ccc(C(=O)N2CC(N3CCN(C(=O)c4nccs4)CC3)C2)cc1 [Cpd 782] | 0.463 | 1070 |  |  | 
O=C(c1ccc(Oc2cccc(F)n2)cc1)N1CC(N2CCN(C(=O)c3cscn3)CC2)C1 [Cpd 784] |  | 1130 | 2.15 |  | 
O=C(c1ccc2c(c1)[nH]c(=O)n2-c1ccc(F)c(F)c1)N1CC(N2CCN(C(=O)c3cscn3)CC2)C1 [Cpd 941] |  | 1370 | 0.389 |  | 
O=C(c1ccc2c(c1)ncn2C1CCC(F)(F)CC1)N1CC(N2CCN(C(=O)c3cscn3)CC2)C1 [Cpd 834] |  | 4600 |  |  | 0.234
O=C(c1cccc(CNc2ccccc2F)c1)N1CC(N2CCN(C(=O)c3nccs3)CC2)C1 [Cpd 1005] |  | 237 | 0.083 |  | 
O=C(c1ccc(N2CCOCC2)cc1)N1CC(N2CCN(C(=O)c3nccs3)CC2)C1 [Cpd 815] |  | 2490 | 0.25 |  | 
O=C(c1ccc2c(c1)ncn2-c1ccccc1)N1CC(N2CCN(C(=O)c3nccs3)CC2)C1 [Cpd 1207] |  | 179 | 0.014 |  | 
Cc1nc2cc(C(=O)N3CC(N4CCN(C(=O)c5nccs5)CC4)C3)ccc2n1-c1ccc(F)cc1 [Cpd 1227] |  | 287 |  |  | 0.011
O=C(CN1C(=O)c2ccccc2S1(=O)=O)N1CC(N2CCN(C(=O)c3nccs3)CC2)C1 [Cpd 1432] |  | > 16700 |  | > 28.4 | 
O=C(c1ccc(Oc2ccccc2Cl)nc1)N1CC(N2CCN(C(=O)c3cscn3)CC2)C1 [Cpd 811] |  | 2150 | 3.33 |  | 
Cc1nc2cc(C(=O)N3CC(N4CCN(C(=O)c5nccs5)CC4)C3)ccc2n1C1CCCCC1 [Cpd 732] |  | 239 | 0.002 |  | 
O=C(c1nccs1)N1CCN(C2CN(C(=O)c3cn(-c4cccc(F)c4)c4ccccc34)C2)CC1 [Cpd 1226] |  | 282 |  | 0.193 | 
O=C(c1ccc2c(c1)[nH]c(=O)n2CC(F)(F)F)N1CC(N2CCN(C(=O)c3cscn3)CC2)C1 [Cpd 943] |  | 10400 | 1.05 |  | 
O=C(c1ccc2[nH]ncc2c1)N1CC(N2CCN(C(=O)c3nccs3)CC2)C1 [Cpd 820, 5-({3-[4-(1,3-Thiazol-2-ylcarbonyl)piperazin-1-yl]azetidin-1-yl}carbonyl)-1H-indazole] |  | 2810 |  | 0.996 | 
O=C(c1ccc(-n2cnc3ccccc32)cc1)N1CC(N2CCN(C(=O)c3cscn3)CC2)C1 [Cpd 1293] |  | 3170 | 1.67 |  | 
O=C(c1cscn1)N1CCN(C2CN(C(=O)c3cc4ccc(C(F)(F)F)cc4[nH]3)C2)CC1 [Cpd 828] |  | 3730 | 2.63 |  | 

Compounds with a lower IC50 [1], results first:

Kd (mutant MGL; [2]) [µM] | IC50 [1] [nM] | Kd (mutant MGL; [3]) [µM] | Kd (mutant MGL; [4]) [µM] | Kd (mutant MGL; [5]) [µM] | Structure (SMILES)
 | 63 |  | 0.195 |  | O=C(c1ccccc1)N1CCN(C2CN(C(=O)c3ccc4c(ccn4-c4cc(F)ccc4F)c3)C2)CC1 [Cpd 578]
 | < 5 |  | 0.002 |  | O=C(c1ccc2c(ccn2-c2ccc(Cl)c(F)c2)c1)N1CC(N2CCN(C(=O)c3nccs3)CC2)C1 [Cpd 1372]
0.018 | 21 |  |  |  | Cc1ccnc(-n2ccc3cc(C(=O)N4CC(N5CCN(C(=O)c6nccs6)CC5)C4)ccc32)c1 [Cpd 1128, 1-(4-Methylpyridin-2-yl)-5-({3-[4-(1,3-thiazol-2-ylcarbonyl)piperazin-1-yl]azetidin-1-yl}carbonyl)-1H-indole]
 | 24 |  |  | 0.085 | O=C(c1ccc2nn(CCc3ccc(F)cc3)cc2c1)N1CC(N2CCN(C(=O)c3nccs3)CC2)C1 [Cpd 1050, 2-[2-(4-Fluorophenyl)ethyl]-5-({3-[4-(1,3-thiazol-2-ylcarbonyl)piperazin-1-yl]azetidin-1-yl}carbonyl)-2H-indazole]
 | 51 |  | 0.083 |  | O=C(c1ccccc1)N1CCN(C2CN(C(=O)c3ccc4c(cnn4-c4ccc(C(F)(F)F)cc4)c3)C2)CC1 [Cpd 575, 5-({3-[4-(Phenylcarbonyl)piperazin-1-yl]azetidin-1-yl}carbonyl)-1-[4-(trifluoromethyl)phenyl]-1H-indazole]
 | 13 |  |  | 0.033 | O=C(c1ccc2nn(Cc3ccc(F)cc3)cc2c1)N1CC(N2CCN(C(=O)c3nccs3)CC2)C1 [Cpd 1030, 2-(4-Fluorobenzyl)-5-({3-[4-(1,3-thiazol-2-ylcarbonyl)piperazin-1-yl]azetidin-1-yl}carbonyl)-2H-indazole]
0.048 | 47 |  |  |  | O=C(c1ccc(COCC(F)(F)F)cc1)N1CC(N2CCN(C(=O)c3nccs3)CC2)C1 [Cpd 694]
 | 30 |  | 0.07 |  | O=C(c1ccc(-c2cccc(C(F)(F)F)c2)cc1)N1CC(N2CCN(C(=O)c3ccc(Cl)s3)CC2)C1 [Cpd 1143]
0.065 | 133 |  |  |  | Cc1ccnc(-n2ccc3cc(C(=O)N4CC(N5CCN(C(=O)c6cscn6)CC5)C4)ccc32)c1 [Cpd 1197, 1-(4-Methylpyridin-2-yl)-5-({3-[4-(1,3-thiazol-4-ylcarbonyl)piperazin-1-yl]azetidin-1-yl}carbonyl)-1H-indole]
 | 147 | 0.067 |  |  | O=C(c1ccc(Oc2ccc(Cl)cn2)cc1)N1CC(N2CCN(C(=O)c3nccs3)CC2)C1 [Cpd 717]
 | 40 |  |  | 0.052 | O=C(c1ccccc1)N1CCN(C2CN(C(=O)c3cc4ccn(-c5ccc(F)cc5)c4cc3F)C2)CC1 [Cpd 631]
0.086 | 112 |  |  |  | O=C(c1ccccc1)N1CCN(C2CN(C(=O)c3ccc4c(ccn4-c4ccc(C(F)(F)F)cn4)c3)C2)CC1 [Cpd 586, 5-({3-[4-(Phenylcarbonyl)piperazin-1-yl]azetidin-1-yl}carbonyl)-1-[5-(trifluoromethyl)pyridin-2-yl]-1H-indole]
 | 16 |  | 0.046 |  | O=C(c1ccc(-c2cccc(C(F)(F)F)c2)cc1)N1CC(N2CCN(C(=O)C3CC3(F)F)CC2)C1 (centres unmarked) [Cpd 1112]
